Molecular target: KRasG12C (M1-K169, biotinylated on the N-terminus) (Homo sapiens (Human), UniProt P01116, G12C)
Assay: Covalent competition assay: scintillation proximity assay (SPA) quantifying covalent modification of KRASG12C
Assay type: binding
Conditions: competition with radiolabeled covalent probe (Compound B/Compound A), 2 hours incubation, 10 nM KRasG12C
In short: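 Scintillation proximity readout after streptavidin bead capture (30 min) of biotinylated KRasG12C(M1-K169):GDP, 10 nM final, which was covalently labelled over 2 h by 25 nM radio-probe plus 475 nM cold probe unless blocked by compound.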

Compound | IC50
C=CC(=O)N1CC2(CC(n3nc(N4CC5(CCOC5)C4)c(-c4c(Cl)c(Cl)cc5[nH]ncc45)c3C)C2)C1 (single isomer, unassigned) [Example 108a, 1-(6-(4-(5,6-dichloro-1H-indazol-4-yl)-5-methyl-3-(6-oxa-2-azaspiro[3.4]octan-2-yl)-1H-pyrazol-1-yl)-2-azaspiro[3.3]heptan-2-yl)prop-2-en-1-one] | > 5000 nM
C=CC(=O)N1CC2(CC(n3nc(N4CC5(CCOC5)C4)c(-c4c(Cl)c(Cl)cc5[nH]ncc45)c3C)C2)C1 (single isomer, unassigned) [Example 108b, 1-(6-(4-(5,6-dichloro-1H-indazol-4-yl)-5-methyl-3-(6-oxa-2-azaspiro[3.4]octan-2-yl)-1H-pyrazol-1-yl)-2-azaspiro[3.3]heptan-2-yl)prop-2-en-1-one] | 576 nM
C=CC(=O)N1CC2(CC(n3nc(N4CCN(C[C@@H]5COCCO5)C[C@]4(C)CC)c(-c4c(Cl)c(C)cc5c4cnn5C)c3C)C2)C1 (single isomer, unassigned) [Example 109a] | 334 nM
C=CC(=O)N1CC2(CC(n3nc(N4CCN(C[C@@H]5COCCO5)C[C@]4(C)CC)c(-c4c(Cl)c(C)cc5c4cnn5C)c3C)C2)C1 (single isomer, unassigned) [Example 109b] | > 5000 nM
C=CC(=O)N1CC2(CC(n3nc(N4CC[C@@H](OCCN5CCOCC5)CC4(C)C)c(-c4c(Cl)c(Cl)cc5[nH]ncc45)c3C)C2)C1 (single isomer, unassigned) [Example 110a] | > 5000 nM
C=CC(=O)N1CC2(CC(n3nc(N4CC[C@@H](OCCN5CCOCC5)CC4(C)C)c(-c4c(Cl)c(Cl)cc5[nH]ncc45)c3C)C2)C1 (single isomer, unassigned) [Example 110b] | 10 nM
C=CC(=O)N1CC2(CC(n3nc(N4C5CCC4COC5)c(-c4c(Cl)c(C)cc5[nH]ncc45)c3C)C2)C1 (single isomer, unassigned) [Example 112a] | > 5000 nM
C=CC(=O)N1CC2(CC(n3nc(N4C5CCC4COC5)c(-c4c(Cl)c(C)cc5[nH]ncc45)c3C)C2)C1 (single isomer, unassigned) [Example 112b] | 171 nM
Cc1cc2[nH]ncc2c(-c2c(N3CCN(C4COC4)CC34CCC4)nn(C3CC4(C3)CN(C(=O)/C=C/CF)C4)c2C)c1Cl (single isomer, unassigned) [Example 113a, (E)-1-(6-(4-(5-chloro-6-methyl-1H-indazol-4-yl)-5-methyl-3-(8-(oxetan-3-yl)-5,8-diazaspiro[3.5]nonan-5-yl)-1H-pyrazol-1-yl)-2-azaspiro[3.3]heptan-2-yl)-4-fluorobut-2-en-1-one] | > 5000 nM
Cc1cc2[nH]ncc2c(-c2c(N3CCN(C4COC4)CC34CCC4)nn(C3CC4(C3)CN(C(=O)/C=C/CF)C4)c2C)c1Cl (single isomer, unassigned) [Example 113b, (E)-1-(6-(4-(5-chloro-6-methyl-1H-indazol-4-yl)-5-methyl-3-(8-(oxetan-3-yl)-5,8-diazaspiro[3.5]nonan-5-yl)-1H-pyrazol-1-yl)-2-azaspiro[3.3]heptan-2-yl)-4-fluorobut-2-en-1-one] | 105 nM
C=CC(=O)N1CC2(CC(n3nc(N4CCN(C5COC5)CC45CCC5)c(-c4c(Cl)c(C)cc5[nH]nc(N)c45)c3C)C2)C1 (single isomer, unassigned) [Example 114a, 1-(6-(4-(3-amino-5-chloro-6-methyl-1H-indazol-4-yl)-5-methyl-3-(8-(oxetan-3-yl)-5,8-diazaspiro[3.5]nonan-5-yl)-1H-pyrazol-1-yl)-2-azaspiro[3.3]heptan-2-yl)prop-2-en-1-one] | 7 nM
C=CC(=O)N1CC2(CC(n3nc(N4CCN(C5COC5)CC45CCC5)c(-c4c(Cl)c(C)cc5[nH]nc(N)c45)c3C)C2)C1 (single isomer, unassigned) [Example 114b, 1-(6-(4-(3-amino-5-chloro-6-methyl-1H-indazol-4-yl)-5-methyl-3-(8-(oxetan-3-yl)-5,8-diazaspiro[3.5]nonan-5-yl)-1H-pyrazol-1-yl)-2-azaspiro[3.3]heptan-2-yl)prop-2-en-1-one] | 337 nM
C=CC(=O)N1CC2(CC(n3nc(N4CCC(N(C)C5COC5)CC45CCC5)c(-c4c(Cl)c(C)cc5[nH]nc(N)c45)c3C)C2)C1 (single isomer, unassigned) [Example 115a, 1-(6-(4-(3-amino-5-chloro-6-methyl-1H-indazol-4-yl)-5-methyl-3-(8-(methyl(oxetan-3-yl)amino)-5-azaspiro[3.5]nonan-5-yl)-1H-pyrazol-1-yl)-2-azaspiro[3.3]heptan-2-yl)prop-2-en-1-one] | 7 nM
C=CC(=O)N1CC2(CC(n3nc(N4CCC(N(C)C5COC5)CC45CCC5)c(-c4c(Cl)c(C)cc5[nH]nc(N)c45)c3C)C2)C1 (single isomer, unassigned) [Example 115b, 1-(6-(4-(3-amino-5-chloro-6-methyl-1H-indazol-4-yl)-5-methyl-3-(8-(methyl(oxetan-3-yl)amino)-5-azaspiro[3.5]nonan-5-yl)-1H-pyrazol-1-yl)-2-azaspiro[3.3]heptan-2-yl)prop-2-en-1-one] | 246 nM
C=CC(=O)N1CC2(CC(n3nc(N4CCC(N(C)C5COC5)CC45CCC5)c(-c4c(Cl)c(C)cc5[nH]nc(N)c45)c3C)C2)C1 (single isomer, unassigned) [Example 116a, 1-(6-(4-(3-amino-5-chloro-6-methyl-1H-indazol-4-yl)-5-methyl-3-(8-(methyl(oxetan-3-yl)amino)-5-azaspiro[3.5]nonan-5-yl)-1H-pyrazol-1-yl)-2-azaspiro[3.3]heptan-2-yl)prop-2-en-1-one] | 205 nM
C=CC(=O)N1CC2(CC(n3nc(N4CCC(N(C)C5COC5)CC45CCC5)c(-c4c(Cl)c(C)cc5[nH]nc(N)c45)c3C)C2)C1 (single isomer, unassigned) [Example 116b, 1-(6-(4-(3-amino-5-chloro-6-methyl-1H-indazol-4-yl)-5-methyl-3-(8-(methyl(oxetan-3-yl)amino)-5-azaspiro[3.5]nonan-5-yl)-1H-pyrazol-1-yl)-2-azaspiro[3.3]heptan-2-yl)prop-2-en-1-one] | 1900 nM
C=CC(=O)N1CC2(CC(n3nc(N4CCN(CC(C)(C)O)CC45CCC5)c(-c4c(Cl)c(C)cc5[nH]nc(N)c45)c3C)C2)C1 (single isomer, unassigned) [Example 117a, 1-(6-(4-(3-amino-5-chloro-6-methyl-1H-indazol-4-yl)-3-(8-(2-hydroxy-2-methylpropyl)-5,8-diazaspiro[3.5]nonan-5-yl)-5-methyl-1H-pyrazol-1-yl)-2-azaspiro[3.3]heptan-2-yl)prop-2-en-1-one] | 9 nM
C=CC(=O)N1CC2(CC(n3nc(N4CCN(CC(C)(C)O)CC45CCC5)c(-c4c(Cl)c(C)cc5[nH]nc(N)c45)c3C)C2)C1 (single isomer, unassigned) [Example 117b, 1-(6-(4-(3-amino-5-chloro-6-methyl-1H-indazol-4-yl)-3-(8-(2-hydroxy-2-methylpropyl)-5,8-diazaspiro[3.5]nonan-5-yl)-5-methyl-1H-pyrazol-1-yl)-2-azaspiro[3.3]heptan-2-yl)prop-2-en-1-one] | 1600 nM
C=CC(=O)N1CC2(CC(n3nc(N4CCN(C[C@@H]5COCCO5)C[C@]4(C)COC)c(-c4c(Cl)c(C)cc5[nH]nc(N)c45)c3C)C2)C1 (single isomer, unassigned) [Example 118a] | 15 nM
C=CC(=O)N1CC2(CC(n3nc(N4CCN(C[C@@H]5COCCO5)C[C@]4(C)COC)c(-c4c(Cl)c(C)cc5[nH]nc(N)c45)c3C)C2)C1 (single isomer, unassigned) [Example 118b] | 818 nM
C=CC(=O)N1CC2(CC(n3nc(N4CCC(N5CC6COCC(C5)O6)CC4(C)C)c(-c4c(Cl)c(C)cc5[nH]ncc45)c3C)C2)C1 (single isomer, unassigned) [Example 119a, 1-(6-(3-(4-(3,9-dioxa-7-azabicyclo[3.3.1]nonan-7-yl)-2,2-dimethylpiperidin-1-yl)-4-(5-chloro-6-methyl-1H-indazol-4-yl)-5-methyl-1H-pyrazol-1-yl)-2-azaspiro[3.3]heptan-2-yl)prop-2-en-1-one] | 2800 nM
C=CC(=O)N1CC2(CC(n3nc(N4CCC(N5CC6COCC(C5)O6)CC4(C)C)c(-c4c(Cl)c(C)cc5[nH]ncc45)c3C)C2)C1 (single isomer, unassigned) [Example 119b, 1-(6-(3-(4-(3,9-dioxa-7-azabicyclo[3.3.1]nonan-7-yl)-2,2-dimethylpiperidin-1-yl)-4-(5-chloro-6-methyl-1H-indazol-4-yl)-5-methyl-1H-pyrazol-1-yl)-2-azaspiro[3.3]heptan-2-yl)prop-2-en-1-one] | 36 nM
CC[C@@]1(C)CN(C[C@@H]2COCCO2)CCN1c1nn(C2CC3(C2)CN(C(=O)/C=C/COC)C3)c(C)c1-c1c(Cl)c(C)cc2[nH]ncc12 (single isomer, unassigned) [Example 120a] | > 5000 nM
CC[C@@]1(C)CN(C[C@@H]2COCCO2)CCN1c1nn(C2CC3(C2)CN(C(=O)/C=C/COC)C3)c(C)c1-c1c(Cl)c(C)cc2[nH]ncc12 (single isomer, unassigned) [Example 120b] | 140 nM
C=CC(=O)N1CC2(CC(n3nc(N4CCN(C(=O)OCCOC)CC45CCC5)c(-c4c(Cl)c(C)cc5[nH]ncc45)c3C)C2)C1 (single isomer, unassigned) [Example 122a, 2-methoxyethyl 5-(1-(2-acryloyl-2-azaspiro[3.3]heptan-6-yl)-4-(5-chloro-6-methyl-1H-indazol-4-yl)-5-methyl-1H-pyrazol-3-yl)-5,8-diazaspiro[3.5]nonane-8-carboxylate] | > 5000 nM
C=CC(=O)N1CC2(CC(n3nc(N4CCN(C(=O)OCCOC)CC45CCC5)c(-c4c(Cl)c(C)cc5[nH]ncc45)c3C)C2)C1 (single isomer, unassigned) [Example 122b, 2-methoxyethyl 5-(1-(2-acryloyl-2-azaspiro[3.3]heptan-6-yl)-4-(5-chloro-6-methyl-1H-indazol-4-yl)-5-methyl-1H-pyrazol-3-yl)-5,8-diazaspiro[3.5]nonane-8-carboxylate] | 16 nM
